Experimental data published in patent US20140234420A1, “Method of Treating Skin Disorders using Nanoscale Delivery Devices and Transdermal Enhancing Compositions” (priority 2008, published 2014).
≈ marks a conversion by molar mass, not a printed value. Where a name gives a salt, the structure may show the parent alone. Read-outs that look alike come from different tables or passages of the source. Blank lines part the entries; values can stand above or below the compound they belong to.

Columns and labels:
[1] = Encapsulation (entrapment) efficiency; format: physicochemical; conditions: for % EE: drug encapsulated in zein/lecithin/squalene nanoemulsions
Method: Detection wavelength: 340 nm; Injection volume: 50 μl: Run time: 10 min. […] The resulting solution was centrifuged at 5000 rpm for 5 min. […] The resulting solution was centrifuged 5000 rpm for 5 min. […] In vitro release of MTX from the formulations in phosphate buffer (pH 7.4) was studied using UV-spectrophotometry. […] Benzoyl peroxide content was measured using HPLC.

[2] = cited from earlier work
[3] = cited from earlier work; remark: listed apart in the source
[4] = Size, polydispersity index and zeta potential determination (Malvern Zetasizer); format: physicochemical
Method: Nanoparticles (2 mg) and micelles (2 mg) were dispersed in 2 ml of purified water and bath sonicated for 1 min. They were then centrifuged at 10000 rpm for 5 min and diluted 50 times with distilled water. About 50 μl of the nanoemulsion was taken and dilated to 1 mL using distilled water. A liposome dispersion was diluted 100 times using purified water and probe sonicated for 1 min using 20% amplitude. The sizes, polydispersity indexes, and zeta potentials, were measured with a Malvern Zetasizer.
Nanoparticles (2 mg) were dispersed in 1 ml of purified water and probe sonicated for 1 min using 20% amplitude. Subsequently, the sonicated particles were diluted 10 times with distilled water and properties were measured using a Malvern Zetasizer. […]
Size, polydispersity index and zeta potential determination: nanoparticles (50 μl), nanoemulsions (squalene) (50 μl) and nanomicelles (2 mg) were dispersed in 2 ml of purified water separately, vortex for 1 min. Further, the size, polydispersity index and zeta potential were measured with a Malvern Zetasizer.

scleroderma patients = conditions: one course of systemic treatment (MTX 15-25 mg/weekly for 6 months); cited from earlier work
[5] = hamster ear in vitro, 24 hrs treatment
Excerpt: The excised hamster ear was placed on the Franz diffusion cell by exposing ventral surface towards the donor compartment.

[6] = sebum flux from citrate-phosphate buffer (pH 5.5), 37° C.
Method: The supporting membrane (polycarbonate membrane, pore size of 0.4 μm) of each insert was loaded with 2.5±0.2 mg of the artificial sebum. […] The study was carried out in an incubator at 125 rpm under 37° C. The complete receptor medium was replaced with fresh medium at predetermined intervals, i.e., 10, 20, 30, 40, 50, 60, 75, 90, 120 and 180 minutes after treatment. […] The cumulative quantity of drug in the receiver compartment was plotted as a function of time. The flux value for a given experiment was obtained from the linear slope (steady-state portion) of the cumulative amount of drug permeated versus time curve.

[7] = Dispersibility in aqueous solution; format: physicochemical
[8] = Stability (half-life) of retinol, free and encapsulated; format: physicochemical
Excerpt: Encapsulation of retinol into the zein nanoparticles and micelles improved the stability of retinol by 2 to 5 fold (see Table 5).

[9] = molecules encapsulated in nanoemulsions (Table 23)
[10] = drug encapsulated in zein/lecithin/squalene nanoemulsions
[11] = compound encapsulated in zein micelles
[12] = compound encapsulated in zein core-shell particles

Structure (SMILES): O=C(OOC(=O)c1ccccc1)c1ccccc1 [Benzoyl peroxide, Benzoyl Peroxide]
- % EE [1]: 83.66 ± 3.81%
- Solubility in ether and chloroform [2]: Soluble
- Solubility in water [2]: insoluble
- Log P [3, 9]: 3.48
- Particle Size [4, 10]: 208.5 ± 6.7 nm

Structure (SMILES): COc1cc(/C=C/C(=O)CC(=O)/C=C/c2ccc(O)c(OC)c2)ccc1O [Curcumin]
- Encapsulation Efficiency [1, 11]: 95 ± 4%
- PI [4, 11]: 0.25 ± 0.03
- Particle Size [4, 11]: 124 ± 4 nm

- Encapsulation Efficiency [1, 12]: 61 ± 16%
- Particle Size [4, 12]: 171 ± 45 nm
Structure (SMILES): COc1cccc2c1C(=O)c1c(O)c3c(c(O)c1C2=O)C[C@@](O)(C(=O)CO)C[C@@H]3O[C@H]1C[C@H](N)[C@H](O)[C@H](C)O1 [Doxorubicin-HCl]
- Log P ([3]; compounds encapsulated in zein core-shell particles (Table 1)): −0.5

- Encapsulation Efficiency [1, 11]: 92 ± 6%
- PI [4, 11]: 0.18 ± 0.06
- Particle Size [4, 11]: 153 ± 3 nm
Structure (SMILES): COc1cccc2c1C(=O)c1c(O)c3c(c(O)c1C2=O)C[C@@](O)(C(=O)CO)C[C@@H]3O[C@H]1C[C@H](N)[C@H](O)[C@H](C)O1 [Doxorubicin]

- % EE [1]: 87.60 ± 2.1%
- Particle Size [4, 10]: 214.3 ± 8.4 nm
Structure (SMILES): CN(Cc1cnc2nc(N)nc(N)c2n1)c1ccc(C(=O)N[C@@H](CCC(=O)O)C(=O)O)cc1 [Methotrexate]
- Solubility in water ([2]; at 19° C.): < 0.1 g/100 ml
- Solubility in DMSO [2]: 100 mM (≈ 45.4 mg/mL)
- Log P [3]: −1.8
- Log P [3, 9]: −1.8
- Patients who reached a remission status (scleroderma patients): 51%

- Encapsulation Efficiency [1, 11]: 77 ± 11%
- PI [4, 11]: 0.21 ± 0.08
- Particle Size [4, 11]: 165 ± 7 nm
Structure (SMILES): CCN(CC)c1ccc2nc3c4ccccc4c(=O)cc-3oc2c1 [Nile Red]
- Log P ([3]; compounds encapsulated in zein micelles (Table 2)): 5

- % Applied dose in Cartilage [5]: 2.409%
- % Applied dose in Dermis [5]: 1.444%
- % Applied dose in Dorsal [5]: 4.713%
- % Applied dose in Sebaceous gland [5]: 0.06619%
- % Applied dose in SC ([5]; 100 μg retinoic acid): 1.692%
Structure (SMILES): CC1=C(/C=C/C(C)=C/C=C/C(C)=C/C(=O)O)C(C)(C)CCC1 [Retinoic acid Solution]

- Particle Size [4, 10]: 152 ± 3.6 nm
- Flux [6]: 0.154 ± 0.003 μg/cm^2/min
Structure (SMILES): CC1=C(/C=C/C(C)=C/C=C/C(C)=C/C(=O)O)C(C)(C)CCC1 [Retinoic acid]
- Solubility in fat [2]: soluble
- Solubility in water [2]: nearly insoluble
- Log P [3, 9]: 6.83

- Encapsulation Efficiency [1, 11]: 83 ± 3.1%
- PI [4, 11]: 0.27 ± 0.06
- Particle Size [4, 11]: 191 ± 6 nm
- Dispersibility in aqueous solution / water [7]: not dispersible in water
- half-life ([8]; liquid state, Dark): 20.8 ± 2.1 h
- half-life ([8]; liquid state, Light): 16.1 ± 1.9 h
- half-life ([8]; solid state, Dark): 63 ± 2.7 h
- half-life ([8]; solid state, Light): 52.8 ± 3.5 h
Structure (SMILES): CC1=C(/C=C/C(C)=C/C=C/C(C)=C/CO)C(C)(C)CCC1 [Retinol]
- Solubility in fat [2]: soluble
- Solubility in water [2]: nearly insoluble
